Experimental data from patent publication US11001577B2, “Pesticidally active azetidine sulfones amide isoxazoline derivatives” (SYNGENTA PARTICIPATIONS AG, priority 2016, dated 2021).

Key:
Assay type in all cases: in vivo
Diabrotica balteata = Diabrotica balteata (corn root worm), maize sprouts sprayed; conditions: 96 h, application rate 200 ppm, L2 larvae, 4 days after infestation, read-out: effect in at least one of the two categories (mortality or growth inhibition)
Procedure: Diabrotica balteata (Corn Root Worm)
Maize sprouts placed onto an agar layer in 24-well microtiter plates were treated with aqueous test solutions prepared from 10,000 ppm DMSO stock solutions by spraying. After drying, the plates were infested with L2 larvae (6 to 10 per well). The samples were assessed for mortality and growth inhibition in comparison to untreated samples 4 days after infestation.

Spodoptera littoralis = Spodoptera littoralis (Egyptian cotton leaf worm), cotton leaf discs; conditions: foliar, 72 h, application rate 200 ppm, L1 larvae, 3 days after infestation
Procedure: Spodoptera littoralis (Egyptian Cotton Leaf Worm)
Cotton leaf discs were placed onto agar in 24-well microtiter plates and sprayed with aqueous test solutions prepared from 10,000 ppm DMSO stock solutions. After drying the leaf discs were infested with five L1 larvae. The samples were assessed for mortality, anti-feeding effect, and growth inhibition in comparison to untreated samples 3 days after infestation. Control of Spodoptera littoralis by a test sample is given when at least one of the categories mortality, anti-feedant effect, and growth inhibition is higher than the untreated sample.

Plutella xylostella = Plutella xylostella (diamond back moth), artificial diet; conditions: 120 h, application rate 200 ppm, L2 larvae, 5 days after infestation, read-out: effect in at least one of the two categories (mortality or growth inhibition)
Procedure: Plutella xylostella (Diamond Back Moth)
24-well microtiter plates with artificial diet were treated with aqueous test solutions prepared from 10,000 ppm DMSO stock solutions by pipetting. After drying, the plates were infested with L2 larvae (10 to 15 per well). The samples were assessed for mortality and growth inhibition in comparison to untreated samples 5 days after infestation.

Euschistus heros = Euschistus heros (neotropical brown stink bug), soybean leaves sprayed; conditions: 120 h, application rate 200 ppm, N2 nymphs, 5 days after infestation, read-out: effect in at least one of the two categories (mortality or growth inhibition)
Procedure: Euschistus heros (Neotropical Brown Stink Bug)
Soybean leaves on agar in 24-well microtiter plates were sprayed with aqueous test solutions prepared from 10,000 ppm DMSO stock solutions. After drying the leaves were infested with N2 nymphs. The samples were assessed for mortality and growth inhibition in comparison to untreated samples 5 days after infestation.

Tetranychus urticae = Tetranychus urticae (two-spotted spider mite) feeding/contact activity; conditions: 192 h, application rate 200 ppm, 8 days after infestation, read-out: mortality on mixed population (mobile stages)
Procedure: Tetranychus urticae (Two-Spotted Spider Mite):Feeding/Contact Activity
Bean leaf discs on agar in 24-well microtiter plates were sprayed with aqueous test solutions prepared from 10,000 ppm DMSO stock solutions. After drying the leaf discs were infested with a mite population of mixed ages. The samples were assessed for mortality on mixed population (mobile stages) 8 days after infestation.

Thrips tabaci = Thrips tabaci (onion thrips) feeding/contact activity; conditions: 144 h, application rate 200 ppm, mixed ages, 6 days after infestation, read-out: mortality
Procedure: Thrips tabaci (Onion Thrips) Feeding/Contact Activity
Sunflower leaf discs were placed on agar in 24-well microtiter plates and sprayed with aqueous test solutions prepared from 10,000 ppm DMSO stock solutions. After drying the leaf discs were infested with a thrips population of mixed ages. The samples were assessed for mortality 6 days after infestation.

Myzus persicae = Myzus persicae (green peach aphid) feeding/contact activity; conditions: 144 h, application rate 200 ppm, mixed ages, 6 days after infestation, read-out: mortality
Procedure: Myzus persicae (Green Peach Aphid):Feeding/Contact Activity
Sunflower leaf discs were placed onto agar in a 24-well microtiter plate and sprayed with aqueous test solutions prepared from 10,000 ppm DMSO stock solutions. After drying, the leaf discs were infested with an aphid population of mixed ages. The samples were assessed for mortality 6 days after infestation.

Cc1cc(C2=NO[C@@](c3cc(Cl)c(F)c(Cl)c3)(C(F)(F)F)C2)ccc1C(=O)NC1CN(S(=O)(=O)NCC(F)(F)F)C1 [Compound A14, 4-[(5S)-5-(3,5-dichloro-4-fluoro-phenyl)-5-(trifluoromethyl)-4H-isoxazol-3-yl]-2-methyl-N-[1-(2,2,2-trifluoroethylsulfamoyl)azetidin-3-yl]benzamide]
≥ 80%: percent effect (mortality or growth inhibition) at 200 ppm (Diabrotica balteata) | percent control (mortality, anti-feedant effect or growth inhibition) at 200 ppm (Spodoptera littoralis) | percent effect (mortality or growth inhibition) at 200 ppm (Plutella xylostella) | percent effect (mortality or growth inhibition) at 200 ppm (Euschistus heros) | mortality at 200 ppm (Tetranychus urticae) | mortality at 200 ppm (Thrips tabaci) | mortality at 200 ppm (Myzus persicae)
